Data published in patent US20210284633A1, “3-(2-THIENYL)-5-(TRIFLUOROMETHYL)-1,2,4-OXADIAZOLE DERIVATIVES AS AGROCHEMICAL FUNGICIDES” (SYNGENTA CROP PROTECTION AG, priority 2018, published 2021).

Legend:
[1] = system: Puccinia recondita f. Sp. tritici; experiment: Puccinia recondita f. sp. tritici / wheat / leaf disc preventative (brown rust); format: in vivo; settings: foliar, 200 ppm in the applied formulation, wheat leaf segments cv. Kanzler, inoculated 1 day after application, assessed 7 to 9 days after application, compared to untreated, read-out: disease control
Procedure: Leaf disks or leaf segments of various plant species are cut from plants grown in a greenhouse. The cut leaf disks or segments are placed in multiwell plates (24-well format) onto water agar. The leaf disks are sprayed with a test solution before (preventative) or after (curative) inoculation. Compounds to be tested are prepared as DMSO solutions (max. 10 mg/mL) which are diluted to the appropriate concentration with 0.025% Tween20 just before spraying. The inoculated leaf disks or segments are incubated under defined conditions (temperature, relative humidity, light, etc.) according to the respective test system. A single evaluation of disease level is carried out 3 to 14 days after inoculation, depending on the pathosystem. Percent disease control relative to the untreated check leaf disks or segments is then calculated. Example 1: Fungicidal Activity Against Puccinia recondita f. Sp. tritici/Wheat/Leaf Disc Preventative (Brown Rust) Wheat leaf segments cv. Kanzler were placed on agar in multiwell plates (24-well format) and sprayed with the formulated test compound diluted in water. The leaf disks were inoculated with a spore suspension of the fungus 1 day after application. The inoculated leaf segments were incubated at 19° C. and 75% relative humidity (rh) under a light regime of 12 hours light/12 hours darkness in a climate cabinet and the activity of a compound was assessed as percent disease control compared to untreated when an appropriate level of disease damage appears in untreated check leaf segments (7 to 9 days after application). The following compounds at 200 ppm in the applied formulation give at least 80% disease control in this test when compared to untreated control leaf disks under the same conditions, which show extensive disease development.

[2] = system: Puccinia recondita f. Sp. tritici; experiment: Puccinia recondita f. sp. tritici / wheat / leaf disc curative (brown rust); format: in vivo; settings: foliar, 200 ppm in the applied formulation, wheat leaf segments cv. Kanzler, applied 1 day after inoculation, assessed 6 to 8 days after application, compared to untreated, read-out: disease control
Procedure: Leaf disks or leaf segments of various plant species are cut from plants grown in a greenhouse. The cut leaf disks or segments are placed in multiwell plates (24-well format) onto water agar. The leaf disks are sprayed with a test solution before (preventative) or after (curative) inoculation. Compounds to be tested are prepared as DMSO solutions (max. 10 mg/mL) which are diluted to the appropriate concentration with 0.025% Tween20 just before spraying. The inoculated leaf disks or segments are incubated under defined conditions (temperature, relative humidity, light, etc.) according to the respective test system. A single evaluation of disease level is carried out 3 to 14 days after inoculation, depending on the pathosystem. Percent disease control relative to the untreated check leaf disks or segments is then calculated. Example 2: Fungicidal Activity Against Puccinia recondita f. sp. tritici/Wheat/Leaf Disc Curative (Brown Rust) Wheat leaf segments cv. Kanzler are placed on agar in multiwell plates (24-well format). The leaf segments are then inoculated with a spore suspension of the fungus. Plates were stored in darkness at 19° C. and 75% relative humidity. The formulated test compound diluted in water was applied 1 day after inoculation. The leaf segments were incubated at 19° C. and 75% relative humidity under a light regime of 12 hours light/12 hours darkness in a climate cabinet and the activity of a compound was assessed as percent disease control compared to untreated when an appropriate level of disease damage appears in untreated check leaf segments (6 to 8 days after application). The following compounds at 200 ppm in the applied formulation give at least 80% disease control in this test when compared to untreated control leaf disks under the same conditions, which show extensive disease development.

Phakopsora pachurhizi = Phakopsora pachurhizi / soybean / leaf disc preventative (Asian soybean rust); format: in vivo; settings: Glycine max, foliar, 200 ppm in the applied formulation, soybean leaf disks, inoculated one day after application, assessed 12 to 14 days after application, compared to untreated, read-out: disease control
Procedure: Leaf disks or leaf segments of various plant species are cut from plants grown in a greenhouse. The cut leaf disks or segments are placed in multiwell plates (24-well format) onto water agar. The leaf disks are sprayed with a test solution before (preventative) or after (curative) inoculation. Compounds to be tested are prepared as DMSO solutions (max. 10 mg/mL) which are diluted to the appropriate concentration with 0.025% Tween20 just before spraying. The inoculated leaf disks or segments are incubated under defined conditions (temperature, relative humidity, light, etc.) according to the respective test system. A single evaluation of disease level is carried out 3 to 14 days after inoculation, depending on the pathosystem. Percent disease control relative to the untreated check leaf disks or segments is then calculated.
Example 3: Fungicidal Activity Against Phakopsora pachurhizi/Soybean/Leaf Disc Preventative (Asian Soybean Rust)
Soybean leaf disks are placed on water agar in multiwell plates (24-well format) and sprayed with the formulated test compound diluted in water. One day after application leaf discs are inoculated by spraying a spore suspension on the lower leaf surface. After an incubation period in a climate cabinet of 24-36 hours in darkness at 20° C. and 75% rh leaf disc are kept at 20° C. with 12 hours light/day and 75% rh. The activity of a compound is assessed as percent disease control compared to untreated when an appropriate level of disease damage appears in untreated check leaf disks (12 to 14 days after application).
The following compounds at 200 ppm in the applied formulation give at least 80% disease control in this test when compared to untreated control leaf disks under the same conditions, which show extensive disease development.

Glomerella lagenarium = Glomerella lagenarium liquid culture / cucumber / preventative (anthracnose); format: cell-based; settings: Colletotrichum orbiculare; 20 ppm in the applied formulation; liquid culture in PDB, 24° C.; measured 3 to 4 days after application; compared to untreated; read-out: disease control (inhibition of growth, photometric)
Procedure: Mycelia fragments or conidia suspensions of a fungus prepared either freshly from liquid cultures of the fungus or from cryogenic storage, are directly mixed into nutrient broth. DMSO solutions of the test compound (max. 10 mg/mL) are diluted with 0.025% Tween20 by a factor of 50 and 10 μL of this solution is pipetted into a microtiter plate (96-well format). The nutrient broth containing the fungal spores/mycelia fragments is then added to give an end concentration of the tested compound. The test plates are incubated in the dark at 24° C. and 96% relative humidity. The inhibition of fungal growth is determined photometrically after 2 to 7 days, depending on the pathosystem, and percent antifungal activity relative to the untreated check is calculated. Example 4: Fungicidal activity against Glomerella lagenarium liquid culture/cucumber/Preventative (Anthracnose) Conidia of the fungus from cryogenic storage are directly mixed into nutrient broth (PDB—potato dextrose broth). After placing a (DMSO) solution of test compound into a microtiter plate (96-well format), the nutrient broth containing the fungal spores is added. The test plates are incubated at 24° C. and the inhibition of growth is measured photometrically 3 to 4 days after application. The following compounds at 20 ppm in the applied formulation give at least 80% disease control in this test when compared to untreated control under the same conditions, which show extensive disease development.

SMILES	pest or weed control at 200 ppm [1] [%]	pest or weed control at 200 ppm [2] [%]	pest or weed control at 200 ppm (Phakopsora pachurhizi) [%]	inhibition at 20 ppm (Glomerella lagenarium) [%]	melting point [°C]
Cc1cnc(Cc2ccc(-c3noc(C(F)(F)F)n3)s2)cn1 [Compound 1.1, 3-[5-[(5-methylpyrazin-2-yl)methyl]-2-thienyl]-5-(trifluoromethyl)-1,2,4-oxadiazole]	≥ 80	≥ 80	≥ 80	≥ 80	
Cc1cnc(C(O)c2ccc(-c3noc(C(F)(F)F)n3)s2)cn1 (stereo not drawn) [Compound 1.3, (5-methylpyrazin-2-yl)-[5-[5-(trifluoromethyl)-1,2,4-oxadiazol-3-yl]-2-thienyl]methanol]	≥ 80	≥ 80	≥ 80	≥ 80	95 to 100
O=C(c1cnc(Cl)cn1)c1ccc(-c2noc(C(F)(F)F)n2)s1 [Compound 1.9, (5-chloropyrazin-2-yl)-[5-[5-(trifluoromethyl)-1,2,4-oxadiazol-3-yl]-2-thienyl]methanone]	≥ 80	≥ 80		≥ 80	80 to 85
CCC(O)(c1ccc(C)cn1)c1ccc(-c2noc(C(F)(F)F)n2)s1 (stereo not drawn) [Compound 1.10, 1-(5-methyl-2-pyridyl)-1-[5-[5-(trifluoromethyl)-1,2,4-oxadiazol-3-yl]-2-thienyl]propan-1-ol]	≥ 80	≥ 80	≥ 80	≥ 80	
Cc1ccc(C(O)c2ccc(-c3noc(C(F)(F)F)n3)s2)nc1 (stereo not drawn) [Compound 1.13, (5-methyl-2-pyridyl)-[5-[5-(trifluoromethyl)-1,2,4-oxadiazol-3-yl]-2-thienyl]methanol]	≥ 80	≥ 80	≥ 80	≥ 80	
FC(F)(F)c1nc(-c2ccc(Cc3cnccn3)s2)no1 [Compound 1.4, 3-[5-(pyrazin-2-ylmethyl)-2-thienyl]-5-(trifluoromethyl)-1,2,4-oxadiazole]	≥ 80	≥ 80	≥ 80	≥ 80	
O=C(c1cnccn1)c1ccc(-c2noc(C(F)(F)F)n2)s1 [Compound 1.5, pyrazin-2-yl-[5-[5-(trifluoromethyl)-1,2,4-oxadiazol-3-yl]-2-thienyl]methanone]	≥ 80	≥ 80	≥ 80	≥ 80	95 to 105
Cc1ccc(Cc2ccc(-c3noc(C(F)(F)F)n3)s2)nc1 [Compound 1.11, 3-[5-[(5-methyl-2-pyridyl)methyl]-2-thienyl]-5-(trifluoromethyl)-1,2,4-oxadiazole]	≥ 80	≥ 80	≥ 80	≥ 80	40 to 45
OC(c1cnccn1)c1ccc(-c2noc(C(F)(F)F)n2)s1 (stereo not drawn) [Compound 1.6, pyrazin-2-yl-[5-[5-(trifluoromethyl)-1,2,4-oxadiazol-3-yl]-2-thienyl]methanol]	≥ 80	≥ 80		≥ 80	
Cc1ccc(C(=O)c2ccc(-c3noc(C(F)(F)F)n3)s2)nc1C [Compound 1.8, (5,6-dimethyl-2-pyridyl)-[5-[5-(trifluoromethyl)-1,2,4-oxadiazol-3-yl]-2-thienyl]methanone]	≥ 80	≥ 80	≥ 80		98 to 112
Cc1ccc(C(=O)c2ccc(-c3noc(C(F)(F)F)n3)s2)nc1 [Compound 1.12, (5-methyl-2-pyridyl)-[5-[5-(trifluoromethyl)-1,2,4-oxadiazol-3-yl]-2-thienyl]methanone]	≥ 80	≥ 80	≥ 80	≥ 80	111 to 114
O=C(c1ncccn1)c1ccc(-c2noc(C(F)(F)F)n2)s1 [Compound 1.7, pyrimidin-2-yl-[5-[5-(trifluoromethyl)-1,2,4-oxadiazol-3-yl]-2-thienyl]methanone]	≥ 80	≥ 80	≥ 80	≥ 80	110 to 116
Cc1cnc(C(=O)c2ccc(-c3noc(C(F)(F)F)n3)s2)cn1 [Compound 1.2, (5-methylpyrazin-2-yl)-[5-[5-(trifluoromethyl)-1,2,4-oxadiazol-3-yl]-2-thienyl]methanone]	≥ 80	≥ 80	≥ 80	≥ 80	105 to 110
